The values below come from patent US12116597B2, “Autophagy as a therapeutic target for intracranial aneurysm” (THE BOARD OF REGENTS OF THE UNIVERSITY OF TEXAS SYSTEM, priority 2022, dated 2024).

This experiment has as its system Thsd1-deficient zebrafish. Put plainly: Intracranial hemorrhage incidence in thsd1-MO zebrafish embryos treated with autophagy inhibitors. Format: in vivo. Conditions: thsd1-MO injected zebrafish embryos; added to embryo water at 1 dpf for 24 hours; 3-MA 10 mM, wortmannin 50 nM, verteporfin 1 uM; FIG. 11. As to the method: Anti-sense morpholinos against thsd1, atg5 or talin was injected into one-cell stage zebrafish singly or in combination to silence the gene accordingly. At day 2 to day 3, embryos will be checked under regular optical microscope. Embryos with intracranial hemorrhages will be counted and imaged by Olympus microscope.
To test the hypothesis that autophagy inhibition could treat intracranial hemorrhage in-vivo 80-120 different zebrafish animals genetically engineered as described in Table 5 were treated with three distinct autophagy inhibitors, namely, 3-MA, wortmannin, or verteporfin. Control (DMSO) or other known autophagy inhibitors including 3-MA (10 mM), wortmannin (50 nM), and verteporfin (1 uM) were added to embryo water at 1 dpf for 24 hours. All embryos were injected by thsd1-MO and the hemorrhagic incidence was counted under microscope. For each injection, around 80-120 embryos were injected. *p<0.05, **p<0.01, n.s. means not significant.
After significant effort in contacting individuals and sequencing the families shown in FIG. 1A, the present disclosure first identified THSD1 as a gene associated with sub-cranial hemorrhage. In specific cases, a single codon substitution was identified as responsible for the phenotype L5F, R460W, E466G, G600E, P639L, T653I, or S775P. […]

Regarding `Cn1cnc(N)c2ncnc1-2` [3-MA, 3-Methyladenine], the “intracranial hemorrhage (hemorrhagic incidence counted under microscope)” value was “rescued intracranial hemorrhage”.

Verteporfin: the “intracranial hemorrhage (hemorrhagic incidence counted under microscope)” value was “rescued intracranial hemorrhage”.
